Test results reported in article PMC11505029, “Isatin Bis-Imidathiazole Hybrids Identified as FtsZ Inhibitors with On-Target Activity Against Staphylococcus aureus” (Antibiotics, 2024).

Columns and labels:
S. aureus ATCC 25923 = assay: broth microdilution antimicrobial activity, S. aureus reference strain; format: cell-based, Staphylococcus aureus
Description: (§1) Reference bacterial strains of Staphylococcus aureus (ATCC 25923), Escherichia coli (ATCC 25922), and Candida albicans (ATCC 10231) were used in this study as Gram-positive, Gram-negative, and fungal models, respectively. These reference strains were purchased from the American Type Culture Collection (ATCC, Manassas, VA, USA); bacterial cultures were routinely grown at 37 °C on 5% blood agar plate, while fungal cultures on Sabouraud Dextrose Agar (Biolife Italiana S.r.l., Milan, Italy).
(§2) The dry powder of the isatin derivatives was resuspended in dimethylsulfoxide (DMSO) at 20 mM and used as stock solutions. For biological investigations, compounds were used in the range 100–0.78 µM, and the solvent in the corresponding percentage range.
(§3) The antimicrobial activity of the compounds was assessed by a well-established broth microdilution procedure in microtiter plates and in compliance with the Clinical and laboratory Standard Institute (CLSI) guidelines (Clinical and Laboratory Standards Institute, Wayne, PA, USA). In short, microbial inocula were prepared at 0.5 McFarland in PBS and, subsequently, bacterial suspensions were diluted 1:200 in Mueller–Hinton broth (Sigma-Aldrich, St. Louis, MO, USA), while fungal inoculum was diluted 1:20 in RPMI-1640 medium (Gibco®, ThermoFisher Scientific Inc., Waltham, MA, USA), containing 2% glucose and 0.3% levo-glutamine buffered to pH 7.0 with 0.165 M 3-(N-morpholino)propanesulfonic acid (MOPS). A total of 100 µL of these microbial suspensions were introduced in a 96-well microplate and incubated with 100 µL of the compounds, two-fold serially diluted in the range of 100–0.19 µM. Positive controls (microbial suspensions in regular media), negative controls (only compounds), and solvent controls (microbial suspensions incubated with DMSO dilutions) were included in the tests. The plate was incubated at 37 °C for 24 h, and subsequently, the optical density at 630 nm (OD630nm) was spectrophotometrically measured. Each experiment was carried out with three technical replicates (i.e., three wells per sample) and repeated at least two times for statistical power. […] IC50 values, corresponding to the concentration of the compound giving rise to an inhibition of growth of 50%, were obtained by interpolation on dose–response curves generated by plotting the percentages of growth inhibition, relative to the positive control (set to 100% of growth), as a function of the tested concentrations (on a logarithm scale). Statistical analysis was carried out using GraphPad Prism version 9.4.1 for Windows (GraphPad Software, San Diego, CA, USA, www.graphpad.com).

C. albicans ATCC 10231 = assay: broth microdilution antimicrobial activity, C. albicans reference strain; format: cell-based, Candida albicans; conditions: 100 μM, growth relative to positive control, mean ± SD
Description: as §1, §2, §3

S. aureus MRSA 1 = assay: dose-response against clinical isolate MRSA 1; format: cell-based; conditions: Staphylococcus aureus, mean [95% confidence interval]
Description: The antimicrobial activity of the compounds was assessed by a well-established broth microdilution procedure in microtiter plates and in compliance with the Clinical and laboratory Standard Institute (CLSI) guidelines (Clinical and Laboratory Standards Institute, Wayne, PA, USA). In short, microbial inocula were prepared at 0.5 McFarland in PBS and, subsequently, bacterial suspensions were diluted 1:200 in Mueller–Hinton broth (Sigma-Aldrich, St. Louis, MO, USA), while fungal inoculum was diluted 1:20 in RPMI-1640 medium (Gibco®, ThermoFisher Scientific Inc., Waltham, MA, USA), containing 2% glucose and 0.3% levo-glutamine buffered to pH 7.0 with 0.165 M 3-(N-morpholino)propanesulfonic acid (MOPS). A total of 100 µL of these microbial suspensions were introduced in a 96-well microplate and incubated with 100 µL of the compounds, two-fold serially diluted in the range of 100–0.19 µM. Positive controls (microbial suspensions in regular media), negative controls (only compounds), and solvent controls (microbial suspensions incubated with DMSO dilutions) were included in the tests. The plate was incubated at 37 °C for 24 h, and subsequently, the optical density at 630 nm (OD630nm) was spectrophotometrically measured. Each experiment was carried out with three technical replicates (i.e., three wells per sample) and repeated at least two times for statistical power. […]

[1] = system: S. aureus ATCC 25923 biofilm; assay: antibiofilm activity, crystal violet staining; format: cell-based, Staphylococcus aureus; conditions: 200–25 µM; inhibition of biofilm production; CV staining
Description: For the evaluation of the bacterial biofilm formation, an established protocol with minor modifications was used. In short, a bacterial suspension of S. aureus ATCC 25923 was prepared in TSB (Tryptic Soy broth (TSB, Sigma-Aldrich, St. Louis, MO, USA) supplemented with 1% of glucose and adjusted to a final density of 10^5 CFU/mL. Aliquots of 100 µL of the culture were transferred to a 96-well flat-bottom polystyrene microplate, and then incubated at 37 °C for 90 min to promote bacterial adhesion. Thereafter, wells were slowly rinsed with PBS to remove non-attached cells, and 100 µL of medium containing the 2-fold serial dilutions of the compounds were added. After incubation at 37 °C for 24 h, the free-floating cells were removed, and the biofilms were carefully washed with PBS, and incubated for 1 h at 60 °C. Bacterial biomass was quantified by a standardized crystal violet (CV) staining. Briefly, 100 µL of CV solution (0.1% in water) were added to each well containing a completely air-dried biofilm, and incubated for 30 min at 37 °C. […] Finally, the colored supernatants were transferred to a new microplate and the OD550nm was read. The inhibitory effect of the compounds on biofilm production was evaluated in comparison to the positive control (S. aureus grown in absence of compounds), and negative control (only medium).

O=C1Nc2cc(OC(F)(F)F)ccc2C1(c1c(Cl)nc2sccn12)c1c(Cl)nc2sccn12 [Compound 11, 3,3-bis(6-Chloroimidazo[2,1-b]thiazol-5-yl)-6-(trifluoromethoxy)indolin-2-one]
SI (selectivity index, CC50/IC50) (S. aureus ATCC 25923; CC50 Vero / IC50 S. aureus): 4.6 | IC50 (S. aureus ATCC 25923; Staphylococcus aureus, ATCC25923, S. aureus ATCC 25923, mean [95% confidence interval]): 13.8 µM | Microbial growth, C. albicans (C. albicans ATCC 10231): did not inhibit the growth | activity at 100 µM (C. albicans ATCC 10231; Candida albicans, ATCC10231, read-out: Microbial growth, C. albicans): 108 ± 8.5% | IC50 (S. aureus MRSA 1): 21.4 µM | biofilm biomass compared to the untreated control [1]: < 10%
